# Source: ChEMBL document CHEMBL1201862, “PubChem BioAssay data set” (2004)
# Activity calls are given as the source filed them.
# Experiments:
# [1] = molecular target: T1, NACHT, LRR and PYD domains-containing protein 1 (Homo sapiens, UniProt Q9C000); test: NALP1 inhibitors in yeast, dose response, luminescent (AID 488860); type: functional
# T1 sequence (Q9C000 whole entry): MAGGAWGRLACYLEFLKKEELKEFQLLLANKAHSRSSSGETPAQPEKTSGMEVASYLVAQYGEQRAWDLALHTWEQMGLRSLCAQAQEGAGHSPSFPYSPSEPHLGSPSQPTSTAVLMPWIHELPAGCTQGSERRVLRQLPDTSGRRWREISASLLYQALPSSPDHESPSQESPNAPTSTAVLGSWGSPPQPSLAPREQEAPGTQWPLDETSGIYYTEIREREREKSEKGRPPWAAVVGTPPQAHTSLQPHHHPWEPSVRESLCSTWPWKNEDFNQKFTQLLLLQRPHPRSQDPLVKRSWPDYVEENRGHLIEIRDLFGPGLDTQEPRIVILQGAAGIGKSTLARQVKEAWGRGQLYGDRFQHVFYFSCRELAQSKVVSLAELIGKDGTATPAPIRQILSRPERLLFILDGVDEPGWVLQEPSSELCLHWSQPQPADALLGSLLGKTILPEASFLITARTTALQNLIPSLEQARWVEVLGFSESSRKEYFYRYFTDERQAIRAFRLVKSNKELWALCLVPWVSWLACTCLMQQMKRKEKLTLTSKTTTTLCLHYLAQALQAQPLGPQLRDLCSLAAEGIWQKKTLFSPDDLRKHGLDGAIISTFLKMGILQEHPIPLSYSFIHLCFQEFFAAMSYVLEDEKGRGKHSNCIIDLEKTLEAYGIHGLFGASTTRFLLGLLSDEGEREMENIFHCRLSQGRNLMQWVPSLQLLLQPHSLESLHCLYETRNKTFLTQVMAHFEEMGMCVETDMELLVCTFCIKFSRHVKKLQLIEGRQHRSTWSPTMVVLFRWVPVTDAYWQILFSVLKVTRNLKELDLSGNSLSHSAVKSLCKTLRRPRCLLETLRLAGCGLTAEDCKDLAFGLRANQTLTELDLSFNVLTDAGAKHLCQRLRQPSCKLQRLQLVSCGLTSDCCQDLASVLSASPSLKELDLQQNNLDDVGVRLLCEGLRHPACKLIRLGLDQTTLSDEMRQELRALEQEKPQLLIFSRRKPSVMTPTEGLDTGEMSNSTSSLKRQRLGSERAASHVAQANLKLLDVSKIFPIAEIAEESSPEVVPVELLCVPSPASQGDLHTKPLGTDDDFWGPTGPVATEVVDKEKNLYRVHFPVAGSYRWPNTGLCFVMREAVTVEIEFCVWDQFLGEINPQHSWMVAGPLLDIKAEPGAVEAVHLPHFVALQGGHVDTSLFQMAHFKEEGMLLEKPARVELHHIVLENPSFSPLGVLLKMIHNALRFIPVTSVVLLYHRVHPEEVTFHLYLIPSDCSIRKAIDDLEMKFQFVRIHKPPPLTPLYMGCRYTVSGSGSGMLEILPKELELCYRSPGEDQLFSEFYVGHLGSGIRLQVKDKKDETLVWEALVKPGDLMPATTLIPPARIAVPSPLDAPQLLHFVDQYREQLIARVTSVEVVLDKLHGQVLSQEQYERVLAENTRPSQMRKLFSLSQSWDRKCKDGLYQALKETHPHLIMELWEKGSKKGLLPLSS
# [2] = NIH3T3 cell viability loss – ATP luminescence, mouse fibroblasts, counter-screen, dose response (AID 2010); type: functional, cell-based;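 also: cells exposed to compound for about 90 hours before reading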
# [3] = Trypanosoma cruzi growth suppression in host cells – NIH3T3 host cells, beta-gal luminescence, confirmation (AID 2044); type: functional, cell-based;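 also: intracellular parasites grown in NIH/3T3 mouse fibroblasts as host cells; luminescent beta-galactosidase reporter signal from transgenic T. cruzi replicating inside host cells; inhibitors lower the luminescence signal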
# [4] = system: Saccharomyces cerevisiae; test: S. cerevisiae Caspase-1/ASC signal blockers IC50, NALP1 inhibitor project selectivity test (AID 488863); type: functional, organism-based
# [5] = molecular target: T2, Cytochrome P450 1A2 (Homo sapiens, UniProt P05177);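 also: PubChem cytochrome P450 panel assay, CYP1A2 panel member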
# T2 sequence (P05177 whole entry): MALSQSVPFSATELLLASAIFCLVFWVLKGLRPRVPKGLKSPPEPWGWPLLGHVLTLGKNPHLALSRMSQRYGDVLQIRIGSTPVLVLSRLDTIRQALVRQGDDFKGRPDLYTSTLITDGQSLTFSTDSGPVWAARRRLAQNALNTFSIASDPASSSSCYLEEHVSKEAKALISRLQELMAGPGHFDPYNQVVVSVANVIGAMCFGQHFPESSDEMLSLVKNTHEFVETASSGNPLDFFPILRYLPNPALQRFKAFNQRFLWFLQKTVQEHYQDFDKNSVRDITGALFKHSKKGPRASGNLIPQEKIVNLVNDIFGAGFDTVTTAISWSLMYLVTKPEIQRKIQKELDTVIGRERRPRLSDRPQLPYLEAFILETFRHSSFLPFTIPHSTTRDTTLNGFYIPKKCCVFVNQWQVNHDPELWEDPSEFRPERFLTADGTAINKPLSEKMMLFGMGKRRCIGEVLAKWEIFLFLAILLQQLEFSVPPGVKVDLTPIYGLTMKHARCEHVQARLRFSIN
# [6] = molecular target: T3, fMet-Leu-Phe receptor (Homo sapiens, UniProt P21462); test: formyl peptide receptor binders – dose response (AID 519); type: functional
# T3 sequence (P21462 whole entry): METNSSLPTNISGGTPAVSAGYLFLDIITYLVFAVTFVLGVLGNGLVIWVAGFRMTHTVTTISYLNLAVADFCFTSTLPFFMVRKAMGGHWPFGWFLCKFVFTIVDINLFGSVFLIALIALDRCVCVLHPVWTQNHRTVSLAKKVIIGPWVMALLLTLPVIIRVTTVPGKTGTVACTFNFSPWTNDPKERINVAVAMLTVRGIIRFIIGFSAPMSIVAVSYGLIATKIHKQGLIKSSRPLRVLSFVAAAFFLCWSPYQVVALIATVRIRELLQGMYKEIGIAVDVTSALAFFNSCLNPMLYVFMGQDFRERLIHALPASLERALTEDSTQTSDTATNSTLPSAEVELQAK
# [7] = molecular target: T4, G-protein coupled receptor 55 (Homo sapiens, UniProt Q9Y2T6); test: selective activators of receptor GPR55 – imaging, U2OS cells, beta-arrestin-GFP redistribution, primary screen (AID 1961); type: functional
# T4 sequence (Q9Y2T6 whole entry): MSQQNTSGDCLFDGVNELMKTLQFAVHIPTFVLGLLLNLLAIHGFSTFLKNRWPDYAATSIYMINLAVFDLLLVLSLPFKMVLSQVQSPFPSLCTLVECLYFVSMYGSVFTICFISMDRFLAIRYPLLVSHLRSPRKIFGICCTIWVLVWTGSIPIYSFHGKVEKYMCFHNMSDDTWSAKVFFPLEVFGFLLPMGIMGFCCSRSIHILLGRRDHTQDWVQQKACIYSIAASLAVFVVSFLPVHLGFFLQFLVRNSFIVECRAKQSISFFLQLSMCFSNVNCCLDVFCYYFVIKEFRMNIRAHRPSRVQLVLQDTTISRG
# [8] = molecular target: Cytochrome P450 2D6 (Homo sapiens, UniProt P10635);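 also: CYP2D6 member of a cytochrome P450 panel assay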
# Chain of Cytochrome P450 2D6 (P10635 whole entry): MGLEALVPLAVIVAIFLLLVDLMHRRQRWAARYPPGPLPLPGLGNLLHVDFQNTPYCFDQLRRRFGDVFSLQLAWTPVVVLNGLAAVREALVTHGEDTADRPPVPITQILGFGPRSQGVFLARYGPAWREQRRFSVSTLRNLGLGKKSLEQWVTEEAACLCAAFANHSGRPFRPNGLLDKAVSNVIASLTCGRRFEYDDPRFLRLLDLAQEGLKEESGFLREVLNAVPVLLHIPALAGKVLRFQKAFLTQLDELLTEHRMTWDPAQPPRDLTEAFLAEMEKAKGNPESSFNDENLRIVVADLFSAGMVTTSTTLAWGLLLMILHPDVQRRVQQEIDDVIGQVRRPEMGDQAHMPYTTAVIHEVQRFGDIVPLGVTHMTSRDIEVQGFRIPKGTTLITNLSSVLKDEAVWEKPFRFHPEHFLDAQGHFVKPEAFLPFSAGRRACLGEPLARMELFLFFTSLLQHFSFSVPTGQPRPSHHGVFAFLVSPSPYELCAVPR
# [9] = molecular target: Glyceraldehyde-3-phosphate dehydrogenase (Homo sapiens, UniProt P04406)
# Chain of Glyceraldehyde-3-phosphate dehydrogenase (P04406 whole entry): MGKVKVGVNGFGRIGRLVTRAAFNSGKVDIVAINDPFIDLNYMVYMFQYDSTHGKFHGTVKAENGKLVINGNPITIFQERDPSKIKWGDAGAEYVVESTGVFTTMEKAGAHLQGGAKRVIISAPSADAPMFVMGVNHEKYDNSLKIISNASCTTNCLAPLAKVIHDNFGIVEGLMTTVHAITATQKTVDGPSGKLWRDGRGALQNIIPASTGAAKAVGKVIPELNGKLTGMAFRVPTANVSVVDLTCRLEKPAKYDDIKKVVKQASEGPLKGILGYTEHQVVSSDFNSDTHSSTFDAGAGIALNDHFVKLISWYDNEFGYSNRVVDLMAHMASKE
# [10] = molecular target: Voltage-dependent T-type calcium channel subunit alpha-1H (Homo sapiens, UniProt O95180); type: functional;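 also: channel activity triggered by adding a high calcium stimulation buffer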
# Chain of Voltage-dependent T-type calcium channel subunit alpha-1H (O95180 whole entry): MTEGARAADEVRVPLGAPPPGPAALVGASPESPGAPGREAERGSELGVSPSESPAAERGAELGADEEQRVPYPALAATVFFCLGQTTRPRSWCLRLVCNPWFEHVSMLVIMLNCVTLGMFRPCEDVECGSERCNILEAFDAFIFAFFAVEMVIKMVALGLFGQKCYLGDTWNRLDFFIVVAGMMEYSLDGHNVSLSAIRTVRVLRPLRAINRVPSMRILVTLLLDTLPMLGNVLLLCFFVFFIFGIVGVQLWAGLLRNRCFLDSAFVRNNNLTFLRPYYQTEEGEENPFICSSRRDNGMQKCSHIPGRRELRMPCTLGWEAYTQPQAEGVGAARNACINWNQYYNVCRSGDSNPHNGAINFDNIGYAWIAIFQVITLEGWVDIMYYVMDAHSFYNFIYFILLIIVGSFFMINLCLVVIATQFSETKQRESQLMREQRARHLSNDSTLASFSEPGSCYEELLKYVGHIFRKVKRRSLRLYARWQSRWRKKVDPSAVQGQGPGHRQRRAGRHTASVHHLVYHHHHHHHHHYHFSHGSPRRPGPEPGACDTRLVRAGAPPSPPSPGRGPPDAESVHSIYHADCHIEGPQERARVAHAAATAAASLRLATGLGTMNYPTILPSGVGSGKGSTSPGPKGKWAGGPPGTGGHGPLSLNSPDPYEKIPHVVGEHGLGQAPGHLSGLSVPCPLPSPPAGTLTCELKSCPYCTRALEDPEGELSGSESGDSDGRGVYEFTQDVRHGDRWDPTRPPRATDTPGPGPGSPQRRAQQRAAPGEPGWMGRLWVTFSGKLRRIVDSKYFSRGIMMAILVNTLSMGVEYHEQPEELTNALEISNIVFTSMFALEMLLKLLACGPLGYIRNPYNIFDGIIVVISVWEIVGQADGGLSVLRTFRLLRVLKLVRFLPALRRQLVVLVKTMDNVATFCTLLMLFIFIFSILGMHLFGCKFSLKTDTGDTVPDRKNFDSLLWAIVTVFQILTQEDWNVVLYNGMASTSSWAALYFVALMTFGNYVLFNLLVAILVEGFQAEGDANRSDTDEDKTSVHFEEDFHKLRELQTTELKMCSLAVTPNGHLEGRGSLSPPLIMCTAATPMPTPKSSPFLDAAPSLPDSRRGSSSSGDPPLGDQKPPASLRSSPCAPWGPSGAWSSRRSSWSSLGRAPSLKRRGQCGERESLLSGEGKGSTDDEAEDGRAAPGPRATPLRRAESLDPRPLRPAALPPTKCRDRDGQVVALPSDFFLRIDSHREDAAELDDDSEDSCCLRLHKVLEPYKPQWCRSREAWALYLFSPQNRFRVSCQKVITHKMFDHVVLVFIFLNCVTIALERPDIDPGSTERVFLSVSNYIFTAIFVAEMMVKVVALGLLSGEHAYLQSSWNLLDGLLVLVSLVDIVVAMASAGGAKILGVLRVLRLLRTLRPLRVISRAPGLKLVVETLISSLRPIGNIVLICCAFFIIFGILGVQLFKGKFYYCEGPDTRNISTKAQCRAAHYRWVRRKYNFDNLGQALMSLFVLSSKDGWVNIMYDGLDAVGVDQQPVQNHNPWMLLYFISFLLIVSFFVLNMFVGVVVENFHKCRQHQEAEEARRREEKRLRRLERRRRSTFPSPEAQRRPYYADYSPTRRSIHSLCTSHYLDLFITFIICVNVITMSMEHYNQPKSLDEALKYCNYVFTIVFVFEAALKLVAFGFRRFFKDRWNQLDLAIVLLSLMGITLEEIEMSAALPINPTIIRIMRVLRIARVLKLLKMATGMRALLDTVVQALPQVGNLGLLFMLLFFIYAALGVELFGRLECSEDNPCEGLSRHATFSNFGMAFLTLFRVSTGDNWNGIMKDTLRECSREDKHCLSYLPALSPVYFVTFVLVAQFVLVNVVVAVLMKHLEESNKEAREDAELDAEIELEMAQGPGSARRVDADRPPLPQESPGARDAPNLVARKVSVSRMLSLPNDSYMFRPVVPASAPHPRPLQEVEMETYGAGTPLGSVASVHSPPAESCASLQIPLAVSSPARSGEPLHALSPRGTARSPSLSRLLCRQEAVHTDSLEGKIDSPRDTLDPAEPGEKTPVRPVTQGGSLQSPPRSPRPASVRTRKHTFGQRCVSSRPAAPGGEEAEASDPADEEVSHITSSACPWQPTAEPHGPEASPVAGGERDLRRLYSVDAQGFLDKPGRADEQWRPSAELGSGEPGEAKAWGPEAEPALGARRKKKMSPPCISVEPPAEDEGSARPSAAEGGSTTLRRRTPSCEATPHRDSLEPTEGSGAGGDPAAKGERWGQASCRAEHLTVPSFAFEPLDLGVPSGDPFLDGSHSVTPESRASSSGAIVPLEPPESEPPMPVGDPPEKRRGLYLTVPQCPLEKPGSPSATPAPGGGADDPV
# [11] = molecular target: T4, G-protein coupled receptor 55; test: inhibition of LPI-stimulated GPR55 beta-arrestin translocation – imaging, U2OS, beta-arrestin-GFP, LPI agonist, primary screen (AID 2013); type: functional;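 also: antagonist potency measured as reduced agonist-driven arrestin aggregation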
# [12] = DRD fibroblast viability loss – cell-based, non-viral oncogenic, luminescence, dose response (AID 1934); type: functional; conditions: Homo sapiens
# [13] = luciferase reporter signal suppression in cells – H4 neuroglioma cells, luminescence, dose response (AID 1990); type: functional, cell-based
# [14] = system: BJ; test: cells; type: functional, cell-based; conditions: Homo sapiens
# [15] = alpha-synuclein stem-loop luciferase translation blockers – H4 neuroglioma cells, luminescence, confirmation (AID 1988); type: functional, cell-based
# [16] = system: BJ; test: BJ-TERT-LT-ST fibroblast viability loss – cell-based, RAS-independent, luminescence, dose response (AID 1935); type: functional; conditions: Homo sapiens;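 also: BJ fibroblasts immortalized with TERT plus LT and ST oncogenes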
# [17] = system: Vero; test: cells; type: functional, cell-based; conditions: Chlorocebus sabaeus
# [18] = system: BJ; test: BJ-TERT fibroblast viability loss – cell-based, RAS-independent, luminescence, dose response (AID 1933); type: functional; conditions: Homo sapiens
# [19] = Luminescence Cell-Based Dose Response HTS to Identify Inhibitors of 5'UTR Stem-Loop Driven Prion Protein mRNA Translation in H4 Neuroglioblastoma Cells. [Related pubchem assays: 1827 (Project Summary), 1813 (Primary HTS)]; type: functional
# [20] = system: Vero; test: cells; type: functional; conditions: Chlorocebus sabaeus
# [21] = molecular target: T5, CAAX prenyl protease 2 (Saccharomyces cerevisiae S288c, UniProt Q03530); type: biochemical
# T5 sequence (Q03530 whole entry): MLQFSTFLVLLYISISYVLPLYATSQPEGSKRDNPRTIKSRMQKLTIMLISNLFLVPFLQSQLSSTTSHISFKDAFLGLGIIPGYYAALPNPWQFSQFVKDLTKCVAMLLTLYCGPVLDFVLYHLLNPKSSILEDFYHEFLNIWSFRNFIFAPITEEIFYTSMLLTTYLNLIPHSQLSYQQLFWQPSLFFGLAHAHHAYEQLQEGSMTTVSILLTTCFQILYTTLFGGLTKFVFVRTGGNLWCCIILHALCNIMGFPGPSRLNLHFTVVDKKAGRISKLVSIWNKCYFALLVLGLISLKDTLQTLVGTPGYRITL
# [22] = molecular target: T6, Type-1 angiotensin II receptor (Homo sapiens, UniProt P30556); test: antagonism of angiotensin II type 1 receptor – cell-based, uHTS hits, selectivity assay for APJ receptor antagonist project, dose response (AID 463214); type: functional;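 also: antagonist potency against angiotensin II stimulated AT1 response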
# T6 sequence (P30556 whole entry): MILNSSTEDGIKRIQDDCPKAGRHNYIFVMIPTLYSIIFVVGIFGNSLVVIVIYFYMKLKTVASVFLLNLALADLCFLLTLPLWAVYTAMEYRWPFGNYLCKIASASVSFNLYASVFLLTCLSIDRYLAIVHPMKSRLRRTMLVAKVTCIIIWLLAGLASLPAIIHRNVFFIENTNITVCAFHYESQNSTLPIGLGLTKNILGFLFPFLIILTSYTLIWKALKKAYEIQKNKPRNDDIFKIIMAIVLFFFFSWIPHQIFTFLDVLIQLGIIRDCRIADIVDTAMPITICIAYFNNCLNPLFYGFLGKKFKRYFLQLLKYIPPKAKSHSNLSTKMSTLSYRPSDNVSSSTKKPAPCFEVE
# [23] = molecular target: Beta-galactosidase (Escherichia coli, UniProt Q8VNN2); test: PubChem AID 485352; type: functional
# Chain of Beta-galactosidase (Q8VNN2 whole entry): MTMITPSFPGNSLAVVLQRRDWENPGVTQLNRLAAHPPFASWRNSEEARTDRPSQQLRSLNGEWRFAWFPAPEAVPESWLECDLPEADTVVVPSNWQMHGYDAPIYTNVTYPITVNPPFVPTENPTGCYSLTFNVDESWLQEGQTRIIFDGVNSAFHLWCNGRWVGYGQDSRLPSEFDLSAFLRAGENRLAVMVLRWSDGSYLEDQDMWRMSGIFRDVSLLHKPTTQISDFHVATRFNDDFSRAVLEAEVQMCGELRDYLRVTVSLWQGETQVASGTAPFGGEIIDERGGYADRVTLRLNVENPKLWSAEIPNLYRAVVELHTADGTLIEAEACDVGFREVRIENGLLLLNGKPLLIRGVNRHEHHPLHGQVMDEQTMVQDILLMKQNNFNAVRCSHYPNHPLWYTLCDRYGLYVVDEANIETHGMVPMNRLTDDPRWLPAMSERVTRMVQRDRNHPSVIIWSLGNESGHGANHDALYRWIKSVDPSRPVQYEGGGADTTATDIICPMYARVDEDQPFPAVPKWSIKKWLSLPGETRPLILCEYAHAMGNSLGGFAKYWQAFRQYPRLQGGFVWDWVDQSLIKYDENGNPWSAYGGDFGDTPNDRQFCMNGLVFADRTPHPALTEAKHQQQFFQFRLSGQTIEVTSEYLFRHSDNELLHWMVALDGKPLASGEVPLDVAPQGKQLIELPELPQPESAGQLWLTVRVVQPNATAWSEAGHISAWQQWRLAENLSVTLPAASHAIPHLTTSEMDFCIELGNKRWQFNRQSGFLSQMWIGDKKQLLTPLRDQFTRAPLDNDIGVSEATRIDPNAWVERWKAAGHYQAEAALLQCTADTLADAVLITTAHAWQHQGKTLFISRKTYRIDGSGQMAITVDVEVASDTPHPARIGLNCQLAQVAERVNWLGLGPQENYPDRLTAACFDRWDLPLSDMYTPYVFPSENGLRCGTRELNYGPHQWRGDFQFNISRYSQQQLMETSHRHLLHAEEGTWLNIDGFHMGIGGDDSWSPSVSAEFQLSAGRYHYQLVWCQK
structure (smiles),measurement,setting,value
Cc1ccc(C(=O)/C=C\C(=O)c2ccc(C)cc2)cc1,IC50,[1],8.75 µM (active)
same,EC50,[2],> 60 µM (not active)
same,EC50,[3],1.97 µM (active)
same,IC50,[4],6.51 µM (active)
Cc1nn2c(O)c3c(nc2c1-c1cccc2ccccc12)CCC3,AC50,[5],25.1 µM (inconclusive)
same,Ki,[6],53.7 µM (inactive)
same,EC50,[7],8.52 µM (active)
same,AC50,[8],35.5 µM (inconclusive)
O=C(O)c1cccc(N2C(=O)c3ccc4c5c(ccc(c35)C2=O)CC4)c1,IC50,[9],> 100 µM (not active)
Cc1ccc(CNC(=O)C(=O)NCC2OCCN2S(=O)(=O)c2ccc3c(c2)OCCO3)cc1 (centres undefined),EC50,[10],4.92 µM (active)
CCCn1c(NCc2cc(OC)ccc2OC)nc2ccccc21,EC50,[10],5.97 µM (active)
Cc1ccc(C(=O)N(c2ccccc2)C2CC(C)N(C(=O)c3ccco3)c3ccccc32)cc1 (centres undefined),IC50,[11],2.41 µM (active)
Cn1cccc1Cc1nnc(SCC(=O)Nc2cccc(Cl)c2)n1-c1ccc(F)cc1,EC50,[10],1.24 µM (active)
CCc1ccc(C(=O)NCc2ccc(Cl)cc2Cl)cc1,IC50,[1],33.9 µM (active)
same,IC50,[4],61 µM (active)
CC(=O)Nc1cccc(Oc2ncnc3scc(-c4ccc(C(C)C)cc4)c23)c1,EC50,[12],31.3 µM (active)
same,EC50,[13],21.7 µM (active)
same,EC50,[14],61.5 µM (active)
same,EC50,[15],18.2 µM (active)
same,EC50,[16],> 150 µM (inconclusive)
same,IC50,[17],17.7 µM (active)
same,EC50,[18],42.6 µM (active)
same,EC50,[7],6.01 µM (active)
same,EC50,[19],> 120 µM (not active)
same,CC50,[20],> 25 µM (active)
COc1ccccc1NC(=O)Cc1nnc(SCC(=O)Nc2nccs2)n1C,AC50,[21],21.1 µM (active)
Cc1ccc(-c2c(C(=O)N/N=C/c3cccc(Cl)c3)nnn2-c2nonc2N)cc1,AC50,[21],1.44 µM (active)
same,IC50,[22],> 40 µM (not active)
same,EC50,[23],> 40 µM (inactive)
